# Source: patent publication US11802111B2, “Cyclobutyl amide monoacylglycerol lipase modulators” (Janssen Pharmaceutica NV, priority 2020, dated 2023)
# Biological target: human MGL from HeLa cells (Homo sapiens (Human), UniProt Q99685)
# Experiment: MGL in vitro activity assay ([glycerol-1,3-3H]-oleoyl glycerol hydrolysis, activated carbon filtration)
# Assay type: biochemical
# Settings: 300 nM [Glycerol-1,3-3H]-oleoyl glycerol, one hour
# Method in brief: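 Activity measured as tritium in the flow-through after activated carbon filtration of a 1 h reaction containing 300 nM 3H-oleoyl glycerol, compound and HeLa-derived human MGL. Compounds screened at 10 μM; IC50 series start at an empirically chosen highest concentration.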
# Chain of human MGL from HeLa cells (Q99685 whole entry): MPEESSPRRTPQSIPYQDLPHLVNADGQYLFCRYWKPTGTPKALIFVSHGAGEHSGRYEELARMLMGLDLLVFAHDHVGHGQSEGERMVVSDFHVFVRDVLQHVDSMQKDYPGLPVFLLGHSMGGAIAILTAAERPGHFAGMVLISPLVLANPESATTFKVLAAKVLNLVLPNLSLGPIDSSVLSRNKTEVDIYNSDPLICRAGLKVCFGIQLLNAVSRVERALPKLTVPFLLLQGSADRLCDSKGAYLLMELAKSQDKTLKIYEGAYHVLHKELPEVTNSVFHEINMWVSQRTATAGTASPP
row,Structure (SMILES),IC50
1,"Cn1nc(C(F)(F)F)cc1CC1CC2(C1)CN(C(=O)[C@H]1C[C@@](C)(O)C1)C2 [Example 214, ((1s,3s)-3-Hydroxy-3-methylcyclobutyl)(6-((1-methyl-3-(trifluoromethyl)-1H-pyrazol-5-yl)methyl)-2-azaspiro[3.3]heptan-2-yl)methanone]",417 nM
2,"Cn1cnc(-c2cccc(C3CCC4(CC3)CN(C(=O)[C@H]3C[C@@](C)(O)C3)C4)c2)c1 [Example 345, ((1s,3s)-3-Hydroxy-3-methylcyclobutyl)(7-(3-(1-methyl-1H-imidazol-4-yl)phenyl)-2-azaspiro[3.5]nonan-2-yl)methanone]",187 nM
3,"Cn1cc(F)c2ccc(OC3CCC4(CC3)CN(C(=O)[C@H]3C[C@@](C)(O)C3)C4)nc21 [Example 474, (7-((3-Fluoro-1-methyl-1H-pyrrolo[2,3-b]pyridin-6-yl)oxy)-2-azaspiro[3.5]nonan-2-yl)((1s,3s)-3-hydroxy-3-methylcyclobutyl)methanone]",5.5 nM
4,"C[C@]1(O)C[C@@H](C(=O)N2CC3(CC(Cc4ccc(OC5CC5)cc4)C3)C2)C1 [Example 272, (6-(4-Cyclopropoxybenzyl)-2-azaspiro[3.3]heptan-2-yl)((1s,3s)-3-hydroxy-3-methylcyclobutyl)methanone]",8.1 nM
5,"Cc1ccc(CC2CCC3(CC2)CN(C(=O)[C@H]2C[C@@](C)(O)C2)C3)cc1 [Example 397, ((1s,3s)-3-Hydroxy-3-methylcyclobutyl)(7-(4-methylbenzyl)-2-azaspiro[3.5]nonan-2-yl)methanone]",16 nM
6,"Cc1cc2ccn(C)c2nc1OC1CCC2(CC1)CN(C(=O)[C@H]1C[C@@](C)(O)C1)C2 [Example 473, (7-((1,5-Dimethyl-1H-pyrrolo[2,3-b]pyridin-6-yl)oxy)-2-azaspiro[3.5]nonan-2-yl)((1s,3s)-3-hydroxy-3-methylcyclobutyl)methanone]",1.2 nM
7,"C[C@]1(O)C[C@@H](C(=O)N2CC3(CC(c4ccc5ccncc5c4)C3)C2)C1 [Example 30, ((1s,3s)-3-Hydroxy-3-methylcyclobutyl)(6-(isoquinolin-7-yl)-2-azaspiro[3.3]heptan-2-yl)methanone]",1180 nM
8,"Cn1ccc2ccc(OC3CCC4(CC3)CN(C(=O)[C@H]3C[C@@](C)(O)C3)C4)nc21 [Example 469, ((1s,3s)-3-Hydroxy-3-methylcyclobutyl)(7-((1-methyl-1H-pyrrolo[2,3-b]pyridin-6-yl)oxy)-2-azaspiro[3.5]nonan-2-yl)methanone]",18 nM
9,"C[C@]1(O)C[C@@H](C(=O)N2CC3(CCC(Oc4ncc(C(F)(F)F)cn4)CC3)C2)C1 [Example 467, ((1s,3s)-3-Hydroxy-3-methylcyclobutyl)(7-((5-(trifluoromethyl)pyrimidin-2-yl)oxy)-2-azaspiro[3.5]nonan-2-yl)methanone]",858 nM
10,"Cn1ncc2ccc(OC3CCC4(CC3)CN(C(=O)[C@H]3C[C@@](C)(O)C3)C4)nc21 [Example 477, ((1s,3s)-3-Hydroxy-3-methylcyclobutyl)(7-((1-methyl-1H-pyrazolo[3,4-b]pyridin-6-yl)oxy)-2-azaspiro[3.5]nonan-2-yl)methanone]",146 nM
11,"C[C@]1(O)C[C@@H](C(=O)N2CC3(CC(Cc4ccc5ccn(CC(F)(F)F)c5n4)C3)C2)C1 [Example 297, ((1s,3s)-3-Hydroxy-3-methylcyclobutyl)(6-((1-(2,2,2-trifluoroethyl)-1H-pyrrolo[2,3-b]pyridin-6-yl)methyl)-2-azaspiro[3.3]heptan-2-yl)methanone]",21 nM
12,"CC(C)(C)c1cc(C2CCC3(CC2)CN(C(=O)[C@H]2C[C@@](C)(O)C2)C3)on1 [Example 382, (7-(3-(tert-Butyl)isoxazol-5-yl)-2-azaspiro[3.5]nonan-2-yl)((1s,3s)-3-hydroxy-3-methylcyclobutyl)methanone]",178 nM

# Continued, values first:
row,IC50,Structure (SMILES)
1,12 nM,"C[C@]1(O)C[C@@H](C(=O)N2CC3(CCC(Oc4cccc(OC(F)(F)F)c4)CC3)C2)C1 [Example 263, ((1s,3s)-3-Hydroxy-3-methylcyclobutyl)(7-(3-(trifluoromethoxy)phenoxy)-2-azaspiro[3.5]nonan-2-yl)methanone]"
2,8.2 nM,"CC(C)c1cccc(C2CCC3(CC2)CN(C(=O)[C@H]2C[C@@](C)(O)C2)C3)c1 [Example 133, ((1s,3s)-3-Hydroxy-3-methylcyclobutyl)(7-(3-isopropylphenyl)-2-azaspiro[3.5]nonan-2-yl)methanone]"
3,67 nM,"COc1cc([C@H]2CCC3(C2)CN(C(=O)[C@H]2C[C@@](C)(O)C2)C3)ccc1C (stereo in doubt) [Example 19, ((1s,3*R)-3-Hydroxy-3-methylcyclobutyl)((*S)-6-(3-methoxy-4-methylphenyl)-2-azaspiro[3.4]octan-2-yl)methanone]"
4,24 nM,"C[C@]1(O)C[C@@H](C(=O)N2CC3(CC[C@H](c4ccc(C(F)(F)F)cc4)C3)C2)C1 (stereo in doubt) [Example 57, ((1s,3*R)-3-Hydroxy-3-methylcyclobutyl)((*S)-6-(4-(trifluoromethyl)phenyl)-2-azaspiro[3.4]octan-2-yl)methanone]"
5,22 nM,"C[C@]1(O)C[C@@H](C(=O)N2CC3(CC[C@@H](c4ccc(C(F)(F)F)cc4)C3)C2)C1 (stereo in doubt) [Example 56, ((1s,3*S)-3-Hydroxy-3-methylcyclobutyl)((*R)-6-(4-(trifluoromethyl)phenyl)-2-azaspiro[3.4]octan-2-yl)methanone]"
6,5.4 nM,"Cc1nc([C@H](C)C2CC3(C2)CN(C(=O)[C@H]2C[C@@](C)(O)C2)C3)ccc1C(F)(F)F (stereo in doubt) [Example 312, ((1s,3*S)-3-Hydroxy-3-methylcyclobutyl)(6-((*R)-1-(6-methyl-5-(trifluoromethyl)pyridin-2-yl)ethyl)-2-azaspiro[3.3]heptan-2-yl)methanone]"
7,47 nM,"Cc1ccc(C2CC3(C2)CN(C(=O)[C@H]2C[C@@](C)(O)C2)C3)cc1C1CC1 [Example 27, (6-(3-Cyclopropyl-4-methylphenyl)-2-azaspiro[3.3]heptan-2-yl)((1s,3s)-3-hydroxy-3-methylcyclobutyl)methanone]"
8,42 nM,"COc1cc(Cl)cc(C2CCC3(C2)CN(C(=O)[C@H]2C[C@@](C)(O)C2)C3)c1 (mixture of isomers) [Example 86, (rac)-(6-(3-Chloro-5-methoxyphenyl)-2-azaspiro[3.4]octan-2-yl)((1s,3s)-3-hydroxy-3-methylcyclobutyl)methanone]"
9,0.6 nM,"Cc1cc(CC2CC3(C2)CN(C(=O)[C@H]2C[C@@](C)(O)C2)C3)ccc1C1CC1 [Example 202, (6-(4-Cyclopropyl-3-methylbenzyl)-2-azaspiro[3.3]heptan-2-yl)((1s,3s)-3-hydroxy-3-methylcyclobutyl)methanone]"
10,19 nM,"Cn1cc(C(F)(F)F)c2ccc(C3CCC4(CC3)CN(C(=O)[C@H]3C[C@@](C)(O)C3)C4)nc21 [Example 386, ((1s,3s)-3-Hydroxy-3-methylcyclobutyl)(7-(1-methyl-3-(trifluoromethyl)-1H-pyrrolo[2,3-b]pyridin-6-yl)-2-azaspiro[3.5]nonan-2-yl)methanone]"
11,4.8 nM,"Cc1nc(O[C@H]2CCC3(C[C@@H]2C)CN(C(=O)[C@H]2C[C@@](C)(O)C2)C3)ccc1C(F)(F)F (stereo in doubt) [Example 444, ((1s,3*R)-3-Hydroxy-3-methylcyclobutyl)((6*S,7*S)-6-methyl-7-((6-methyl-5-(trifluoromethyl)pyridin-2-yl)oxy)-2-azaspiro[3.5]nonan-2-yl)methanone]"
12,5.5 nM,"C[C@]1(O)C[C@@H](C(=O)N2CC3(CC[C@@H](c4ccc(C5CC5)cc4)C3)C2)C1 [Example 51, ((R)-6-(4-Cyclopropylphenyl)-2-azaspiro[3.4]octan-2-yl)((1s,3S)-3-hydroxy-3-methylcyclobutyl)methanone]"
13,1.8 nM,"CCOc1cccc(C2CCC3(CC2)CN(C(=O)[C@H]2C[C@@](C)(O)C2)C3)c1C [Example 361, (7-(3-Ethoxy-2-methylphenyl)-2-azaspiro[3.5]nonan-2-yl)((1s,3s)-3-hydroxy-3-methylcyclobutyl)methanone]"
14,0.3 nM,"Cc1cc(CC2CC3(C2)CN(C(=O)[C@H]2C[C@@](C)(O)C2)C3)ccc1C(F)(F)F [Example 212, ((1s,3s)-3-Hydroxy-3-methylcyclobutyl)(6-(3-methyl-4-(trifluoromethyl)benzyl)-2-azaspiro[3.3]heptan-2-yl)methanone]"
15,114 nM,"Cc1ccc(OC2CC3(C2)CN(C(=O)[C@H]2C[C@@](C)(O)C2)C3)cc1C(F)(F)F [Example 248, ((1s,3s)-3-Hydroxy-3-methylcyclobutyl)(6-(4-methyl-3-(trifluoromethyl)phenoxy)-2-azaspiro[3.3]heptan-2-yl)methanone]"
16,24 nM,"CC(F)(F)c1ccc(OC2CCC3(CC2)CN(C(=O)[C@H]2C[C@@](C)(O)C2)C3)nc1 [Example 422, (7-((5-(1,1-Difluoroethyl)pyridin-2-yl)oxy)-2-azaspiro[3.5]nonan-2-yl)((1s,3s)-3-hydroxy-3-methylcyclobutyl)methanone]"
17,2.9 nM,"CCc1ccc(OC2CCC3(CC2)CN(C(=O)[C@H]2C[C@@](C)(O)C2)C3)nc1C(F)(F)F [Example 450, (7-((5-Ethyl-6-(trifluoromethyl)pyridin-2-yl)oxy)-2-azaspiro[3.5]nonan-2-yl)((1s,3s)-3-hydroxy-3-methylcyclobutyl)methanone]"
18,7.4 nM,"Cc1ccc(C2CCC3(C2)CN(C(=O)[C@H]2C[C@@](C)(O)C2)C3)cc1OC(F)(F)F (mixture of isomers) [Example 107, (rac)-((1s,3s)-3-Hydroxy-3-methylcyclobutyl)(6-(4-methyl-3-(trifluoromethoxy)phenyl)-2-azaspiro[3.4]octan-2-yl)methanone]"
19,14 nM,"C[C@]1(O)C[C@@H](C(=O)N2CC3(CCC(c4cccc(C5CCC5)c4)C3)C2)C1 (mixture of isomers) [Example 64, (rac)-(6-(3-Cyclobutylphenyl)-2-azaspiro[3.4]octan-2-yl)((1s,3s)-3-hydroxy-3-methylcyclobutyl)methanone]"
